In PMC3735939, “The low levels of eicosapentaenoic acid in rat brain phospholipids are maintained via multiple redundant mechanisms” (Journal of Lipid Research, 2013):

What was measured:
[1] = Brain total phospholipid and phospholipid class FA concentrations (GC-FID); assay type: in vivo, rat; conditions: MEP vs vehicle
From the text: Total lipids from one brain hemisphere and from plasma were extracted by the method of Folch, Lees, and Sloane Stanley ([39]). Isolation of various neutral lipid and phospholipid classes from the total lipid extract was previously described by Chen, Liu, and Bazinet ([6]).
Brain FA concentrations from total and phospholipid classes were quantified as described by Chen, Liu, and Bazinet ([6]).

[2] = system: mitochondrial FA β-oxidation; experiment: Radioactivity in brain aqueous fraction (marker of β-oxidation) after 5 min intravenous 14C-tracer infusion; assay type: in vivo, rat; conditions: MEP 10 mg/kg iv 10 min before infusion
Method: (§1) Twenty-four hours postsurgery, a second catheter (iv catheter 24 gauge/0.75 inch, Angiocath™; Becton Dickinson) was implanted into the tail vein where rats received either vehicle or 10 mg/kg of MEP. Ten minutes post injection of vehicle or MEP, the tail vein catheter was connected to a syringe containing radiolabeled ^14C-palmitate (n = 8), ^14C-DHA (n = 6), or ^14C-EPA (n = 7) attached to a computer-controlled variable speed pump (PHD 22/2000; Harvard Apparatus, Holliston, MA). […] Each rat received a dose of 76 μCi ^14C-palmitate, 76 μCi ^14C-DHA, or 78 μCi ^14C-EPA. […] The radiotracer infusions continued until rats were euthanized. The brain was excised and cut sagittally. Both hemispheres were stored at −80°C for radioactive and biochemical analyses. Plasma was isolated from whole blood via microcentrifugation at 6,200 rpm (2,000 g) for 5 min and stored at −80°C. Total lipids from one brain hemisphere and from plasma were extracted by the method of Folch, Lees, and Sloane Stanley ([39]). Isolation of various neutral lipid and phospholipid classes from the total lipid extract was previously described by Chen, Liu, and Bazinet ([6]).

[3] = Radioactivity in brain lipid fractions after 5 min intravenous 14C-tracer infusion (TLC, LSC); assay type: in vivo, rat; conditions: MEP vs vehicle
Method: as §1, with “([6]). FA methyl esters and radioactive acyl-CoA analysis were previously described by Chen, Liu, and Bazinet ([6]).” for “([6]).”

[4] = In vivo kinetics of FA incorporation and turnover in brain phospholipids (intravenous radiotracer infusion, kinetic model); parameters: species or system rat; conditions: MEP vs vehicle
Method: Twenty-four hours postsurgery, a second catheter (iv catheter 24 gauge/0.75 inch, Angiocath™; Becton Dickinson) was implanted into the tail vein where rats received either vehicle or 10 mg/kg of MEP. […] The radiotracers were infused for 5 min via the tail vein catheter at a rate of 0.223(1 + e^−19.2t) ml/min (t is infusion time in minutes) ([37]) which achieves a steady-state plasma radioactivity within 1 min ([18], [38]). […] During the 5 min infusion, blood samples were collected from the jugular vein at approximately 0, 0.25, 0.5, 0.75, 1.5, 3, 4, and 5 min while the unanesthetized rat was mobile in the infusion box with food and water. […] After 5 min, the rats were rapidly euthanized by head-focused high-energy microwave irradiation (13.5 kW for 1.6 s; Cober Electronics Inc., Stratford, CT). The radiotracer infusions continued until rats were euthanized. The brain was excised and cut sagittally. Both hemispheres were stored at −80°C for radioactive and biochemical analyses. Plasma was isolated from whole blood via microcentrifugation at 6,200 rpm (2,000 g) for 5 min and stored at −80°C.
The model for in vivo kinetics of brain FAs in rats has been previously described ([17], [18], [21], [23], [25], [37], [41]).
Because the infusion is 5 min, contributions of FA from de novo synthesis and esterified plasma FA are negligible ([18], [20], [23], [41]); thus only contributions from plasma unesterified FAs and acyl-CoA pools were considered in the calculation of λpalmitate, DHA, or EPA .

With `CCCCCCCCCCCCCCC1(C(=O)OC)CO1` (stereo not drawn) [MEP, methyl-2-tetradecylglycidate, reference compound] the “reduction in ARA from PtdSer” value [1] was 8%, the “reduction in linoleate from EtnGpl” value [1] was 9% and the “reduction of radioactivity in brain aqueous fraction” value ([2]; 14C-DHA-infused rats) was 23%. For the same compound, the “reduction of radioactivity in brain aqueous fraction” value ([2]; 14C-EPA-infused rats) was 54%, the “reduction of radioactivity in brain aqueous fraction” value ([2]; 14C-palmitate-infused rats) was 74% and the “increase in radioactivity of PtdSer” value ([3]; 14C-EPA-infused rats) was 49%. The “increase in radioactivity of PtdIns” value ([3]; 14C-palmitate-infused rats) was 65%, the “fold increase in esterification of 14C-palmitate into diacylglycerol” value [4] was 2 fold and the “fold increase in esterification of 14C-palmitate into triacylglycerol” value [4] was 2 fold. The “fold increase of t1/2 of EPA in ChoGpl” value [4] was 1.7 fold, the “fold increase of t1/2 of EPA-synthesized DHA in ChoGpl” value [4] was 4.3 fold and the “fold increase of t1/2 of EPA-synthesized DHA in EtnGpl” value [4] was 2.5 fold. For the same compound, the “fold increase of t1/2 of EPA-synthesized DHA in brain total phospholipids” value [4] was 4.2 fold, the “fold increase of t1/2 of EPA-synthesized n-3 DPA in PtdSer” value [4] was 1.6 fold and the “reduction of FFA of DHA in brain total phospholipids” value [4] was 24 % per day.
